Results reported in patent publication US11478451B1, “Macrocyclic chlorine substituted indole derivatives” (Bayer Aktiengesellschaft, priority 2017, dated 2022).
Where a name gives a salt, the structure may show the parent alone. Read-outs that look alike come from different tables or passages of the source.

Tests used:
SUDHL5 cells [1] = test: Induction of caspase-3/7 activity (Caspase-Glo 3/7), SUDHL5; type: cell-based; details: EC50, median, SUDHL5, 3 h treatment
Summary of the method: (§1)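 DLBCL lines were exposed to test compounds for 3 h at 37 °C in a humidified incubator, then caspase-3/7 activity was measured with Caspase-Glo 3/7 reagent. Medium-only background was subtracted from all readings.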

SUDHL10 cells [2] = test: Induction of caspase-3/7 activity (Caspase-Glo 3/7), SUDHL10; type: cell-based; details: EC50, median, SUDHL10, 3 h treatment
Summary of the method: as §1

SUDHL5 cells [3] = test: Antiproliferation assay (CellTiter-Glo, 72 h), SUDHL5; type: cell-based; details: IC50, median, SUDHL5, 72 h, read-out: Antiproli SUDHL5 [M] (median)
Summary of the method: (§2)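 Cells were exposed to compounds for 72 h at 37 °C in a humidified incubator, with rim wells excluded. Viability was read by CellTiter-Glo luminescence after a 10 min incubation. A parallel day 0 plate, read the same way, gave the time-zero baseline.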

AMO-1 cells = test: Antiproliferation assay (CellTiter-Glo, 72 h), AMO-1; type: cell-based; details: IC50, median, AMO-1, 72 h, read-out: Antiproli AMO-1 [M] median
Summary of the method: as §2

HMC-1-8 cells = test: Antiproliferation assay (CellTiter-Glo, 72 h), HMC-1-8; type: cell-based; details: IC50, median, HMC-1-8, 72 h, read-out: Antiproli HMC-1-8 [M] median
Summary of the method: as §2

SUDHL5 cells [4] = test: Induction of cytotoxicity (CellTiter-Glo, 5 h), SUDHL5; details: SUDHL5, 5 h
SUDHL10 cells [5] = test: Induction of cytotoxicity (CellTiter-Glo, 5 h), SUDHL10; details: SUDHL10, 5 h
Method: Therefore, cytotoxicity assays were run in parallel in SUDHL5 and SUDHL10 cells.
The different cell lines were plated in culture medium (RPMI 1640 [GIBCO #22400-089] supplemented with 10% Fetal Bovine Serum) at a density of 3,300 cells in 30 μL/well in a sterile, solid black, flat bottom, polystyrene, TC-treated 384-well microplate (Corning #3571) using Multidrop Combi Reagent Dispenser. As a control, medium without cells was also added to the plate. Cells were incubated in a humidified incubator at 37° C. overnight. […] Rim wells were excluded. The cells were incubated for 5 h hours in a humidified incubator at 37° C. After this incubation, 30 μL of CellTiter-Glo® Luminescent Cell Viability reagent (Promega, G7573) was added to each well using the Multidrop Combi Reagent Dispenser, followed by 15 min incubation on a shaker at room temperature. Finally, luminescence was read at 0.1 ms, with a gain of 3000 using the PHERAstar FS microplate reader (BMG Labtech).

[6] = read-out: Cytotox SUDHL5 [M] (median), IC50, median
[7] = read-out: Cytotox SUDHL10 [M] (median), IC50, median
[8] = Homo sapiens, SU-DHL10, 5 h, read-out: Cytotox SUDHL10 [M] (median), IC50, median

| EC50 (SUDHL5 cells [1]) [nM] | EC50 (SUDHL10 cells [2]) [nM] | IC50 (SUDHL5 cells [3]) [M] | SMILES | IC50 (AMO-1 cells) [M] | IC50 (HMC-1-8 cells; 72 h) [M] | IC50 (SUDHL5 cells [4]; [6]) [M] | IC50 (SUDHL10 cells [5]; [7]) [M] | other results |
| --- | --- | --- | --- | --- | --- | --- | --- | --- |
| – | – | – | CCc1c2c(nn1C)COCCC(F)(F)Cn1c(C(=O)O)c(CCCOc3cccc4cc(F)ccc34)c3ccc(Cl)c-2c31 (single isomer, unassigned) [Example 98, (+)-4-chloro-3-ethyl-11,11-difluoro-7-{3-[(6-fluoronaphthalen-1-yl)oxy]propyl}-2-methyl-2,10,11,12,13,15-hexahydropyrazolo[4′,3′:9,10][1,6]oxazacycloundecino[8,7,6-hi]indole-8-carboxylic acid] | – | – | – | – | EC50 (SUDHL5 cells [1]; listed as 098): 6200 nM; EC50 (SUDHL10 cells [2]; listed as 098): 5000 nM; IC50 (SUDHL5 cells [3]; listed as 098): 2.2e-06 M; IC50 (AMO-1 cells; listed as 098): 6.9e-06 M; IC50 (HMC-1-8 cells; listed as 098): 5.9e-06 M; IC50 (SUDHL5 cells [4]; read-out: Cytotox SUDHL5 [M] (median), IC50, median, listed as 098): 7.3e-06 M; IC50 (SUDHL10 cells [5]; read-out: Cytotox SUDHL10 [M] (median), IC50, median, listed as 098): 6.3e-06 M |
| 290 | 290 | 3.4e-07 | CCc1c2c(nn1C)CCCN(C)CCn1c(C(=O)O)c(CCCOc3cccc4cc(F)ccc34)c3ccc(Cl)c-2c31 (single isomer, unassigned) [Example 116, (+)-4-chloro-3-ethyl-7-{3-[(6-fluoronaphthalen-1-yl)oxy]propyl}-2,12-dimethyl-10,11,12,13,14,15-hexahydro-2H-pyrazolo[3′,4′:8,9][1,4]diazacycloundecino[10,11,1-hi]indole-8-carboxylic acid] | 2.1e-07 | 2.3e-06 | 4.1e-07 | 3.4e-07 | – |
| 280 | 480 | 4.3e-07 | CCc1c2c(nn1C)CN(C)CC(F)(F)CCn1c(C(=O)O)c(CCCOc3cccc4cc(F)ccc34)c3ccc(Cl)c-2c31 (single isomer, unassigned) [Example 127, 4-chloro-3-ethyl-12,12-difluoro-7-{3-[(6-fluoronaphthalen-1-yl)oxy]propyl}-2,14-dimethyl-10,11,12,13,14,15-hexahydro-2H-pyrazolo[3′,4′:8,9][1,6]diazacycloundecino[10,11,1-hi]indole-8-carboxylic acid] | 5.8e-07 | 2.2e-06 | 2.4e-07 | 3.8e-07 | – |
| 390 | 470 | 7.2e-07 | CCc1c2c(nn1C)COCC1CC1Cn1c(C(=O)O)c(CCCOc3cccc4cc(F)ccc34)c3ccc(Cl)c-2c31 (single isomer, unassigned; (+)) [Example 107] | 5.5e-07 | 2.4e-06 | 4.6e-07 | – | IC50 (SUDHL10 cells [5]; [8]): 5.9e-07 M |
| 660 | 700 | 7.4e-07 | CCc1c2c(nn1C)CCCCCCn1c(C(=O)O)c(CCCOc3cccc4ccccc34)c3ccc(Cl)c-2c31 (single isomer, unassigned; enantiomer 2) [Example 53, (−) 4-chloro-3-ethyl-2-methyl-7-{3-[(naphthalen-1-yl)oxy]propyl}-10,11,12,13,14,15-hexahydro-2H-pyrazolo[4′,3′:4,5]azacycloundecino[3,2,1-hi]indole-8-carboxylic acid-N-ethylethanamine salt—Enantiomer 2] | 1.5e-06 | 6.9e-06 | 4.8e-07 | 9.7e-07 | – |
| – | – | – | CCc1c2c(nn1C)COCC1(CCn3c(C(=O)O)c(CCCOc4cccc5ccccc45)c4ccc(Cl)c-2c43)CC1 (single isomer, unassigned; enantiomer 2) [Example 74, (+)-4′-chloro-3′-ethyl-2′-methyl-7′-{3-[(naphthalen-1-yl)oxy]propyl}-2′,10′,11′,15′-tetrahydro-13′H-spiro[cyclopropane-1,12′-pyrazolo[4′,3′:9,10][1,6]oxazacycloundecino[8,7,6-hi]indole]-8′-carboxylic acid-N-ethylethanamine salt (Enantiomer 2)] | – | 9.4e-06 | – | – | EC50 (SUDHL5 cells [1]; Homo sapiens, SU-DHL-5, 3 h): 140 nM; EC50 (SUDHL10 cells [2]; Homo sapiens, SU-DHL10, 3 h): 570 nM; IC50 (SUDHL5 cells [3]; Homo sapiens, SU-DHL-5, 72 h): 7.6e-07 M; IC50 (AMO-1 cells; Homo sapiens, AMO1, 72 h): 1.3e-06 M; IC50 (SUDHL5 cells [4]; Homo sapiens, SU-DHL-5, 5 h, read-out: Cytotox SUDHL5 [M] (median), IC50, median): 4.1e-07 M; IC50 (SUDHL10 cells [5]; [8]): 4e-07 M |
| – | – | – | CCc1c2c(nn1C)CN(CC(F)F)CCCCn1c(C(=O)O)c(CCCOc3cccc4cc(F)ccc34)c3ccc(Cl)c-2c31 (single isomer, unassigned; enantiomer 2) [Example 76, (−)-4-chloro-14-(2,2-difluoroethyl)-3-ethyl-7-{3-[(6-fluoronaphthalen-1-yl)oxy]propyl}-2-methyl-10,11,12,13,14,15-hexahydro-2H-pyrazolo[3′,4′:8,9][1,6]diazacycloundecino[10,11,1-hi]indole-8-carboxylic acid N-ethylethanamine salt (Enantiomer 2)] | – | – | – | – | EC50 (SUDHL5 cells [1]; listed as 076): 240 nM; EC50 (SUDHL10 cells [2]; listed as 076): 260 nM; IC50 (SUDHL5 cells [3]; listed as 076): 3.2e-07 M; IC50 (AMO-1 cells; listed as 076): 2.4e-07 M; IC50 (HMC-1-8 cells; listed as 076): 4.4e-06 M; IC50 (SUDHL5 cells [4]; read-out: Cytotox SUDHL5 [M] (median), IC50, median, listed as 076): 3e-07 M; IC50 (SUDHL10 cells [5]; read-out: Cytotox SUDHL10 [M] (median), IC50, median, listed as 076): 4e-07 M |
| – | – | – | Cc1c2c(nn1C)COCCC(F)(F)Cn1c(C(=O)O)c(CCCOc3cccc4ccccc34)c3ccc(Cl)c-2c31 [Example 95, 4-chloro-11,11-difluoro-2,3-dimethyl-7-{3-[(naphthalen-1-yl)oxy]propyl}-2,10,11,12,13,15-hexahydropyrazolo[4′,3′:9,10][1,6]oxazacycloundecino[8,7,6-hi]indole-8-carboxylic acid N-ethylethanamine salt] | – | – | – | – | EC50 (SUDHL5 cells [1]; listed as 095): 550 nM; EC50 (SUDHL10 cells [2]; listed as 095): 870 nM; IC50 (SUDHL5 cells [3]; Homo sapiens, SU-DHL-5, 72 h): 1e-06 M; IC50 (AMO-1 cells; Homo sapiens, AMO1, 72 h): 9.7e-07 M; IC50 (HMC-1-8 cells; listed as 095): 7.2e-06 M; IC50 (SUDHL5 cells [4]; read-out: Cytotox SUDHL5 [M] (median), IC50, median, listed as 095): 7.7e-07 M; IC50 (SUDHL10 cells [5]; read-out: Cytotox SUDHL10 [M] (median), IC50, median, listed as 095): 4.5e-07 M |
| 190 | 180 | – | CCc1c2c(nn1C)COCC(O)CCn1c(C(=O)O)c(CCCOc3cccc4cc(F)ccc34)c3ccc(Cl)c-2c31 (centres unmarked) [Example 99, 4-chloro-3-ethyl-7-{3-[(6-fluoronaphthalen-1-yl)oxy]propyl}-12-hydroxy-2-methyl-2,10,11,12,13,15-hexahydropyrazolo[4′,3′:9,10][1,6]oxazacycloundecino[8,7,6-hi]indole-8-carboxylic acid-N-ethylethanamine salt] | – | 5.9e-06 | 2.7e-07 | 2.3e-07 | IC50 (SUDHL5 cells [3]; Homo sapiens, SU-DHL-5, 72 h): 2.6e-07 M; IC50 (AMO-1 cells; Homo sapiens, AMO1, 72 h): 5.2e-07 M |
| 270 | 360 | 2.1e-06 | CCc1c2c(nn1C)CN(C)CCCn1c(C(=O)O)c(CCCOc3cccc4cc(F)ccc34)c3ccc(Cl)c-2c31 [Example 113, (+)-12-chloro-11-ethyl-1-{3-[(6-fluoronaphthalen-1-yl)oxy]propyl}-7,10-dimethyl-4,5,6,7,8,10-hexahydropyrazolo[3′,4′:7,8][1,5]diazecino[9,10,1-hi]indole-2-carboxylic acid N-ethylethanamine salt] | 3.2e-07 | – | 3e-07 | 6.5e-07 | IC50 (HMC-1-8 cells): 3.7e-06 M |
| 110 | 210 | 3.1e-07 | CCc1c2c(nn1C)CCCN(CC(F)F)CCn1c(C(=O)O)c(CCCOc3cccc4cc(F)ccc34)c3ccc(Cl)c-2c31 [Example 119, (+)-4-chloro-12-(2,2-difluoroethyl)-3-ethyl-7-{3-[(6-fluoronaphthalen-1-yl)oxy]propyl}-2-methyl-10,11,12,13,14,15-hexahydro-2H-pyrazolo[3′,4′:8,9][1,4]diazacycloundecino[10,11,1-hi]indole-8-carboxylic acid N-ethylethanamine salt] | 3.6e-07 | – | 1.4e-07 | 2.9e-07 | IC50 (HMC-1-8 cells): 1.3e-06 M |
